Assay results published in patent US7317003B2, “Small peptides having anti-angiogenic and endothelial cell inhibition activity” (National University of Singapore, priority 1998, dated 2008).
Where a SMILES comes first, the peptide text is derived from it.

Tests used:
[1] = test system: bovine aorta endothelial cell (BAE); assay type: cell-based; details: 72 h; for inhibition of BAE cell proliferation (in words): bFGF 1 ng/ml
Procedure: The peptides were tested in an in vitro bovine aorta endothelial cell (BAE) proliferation assay for their ability to inhibit BAE cell proliferation. Cells were plated into 24-well culture plates at 1.25×10^4 cells/well in complete SFM-endothelial medium (Gibco, USA). After 24 h, the medium was removed and various amounts of peptides were added into the wells in 0.5 ml of SFM-endothelial medium without bFGF. After 30 minutes incubation, bFGF was added into each well at a final concentration of 1 ng/ml together with another 0.5 ml of SFM-endothelial medium. Seventy-two hours later, cells were trypsinized and counted using a hemocytometer. Commercial E. coli recombinant human angiostatin (1 μM) was used as a control in the experiments.
Peptides were tested in an in vitro bovine aorta endothelial cell (BAE) proliferation assay for their ability to inhibit BAE cell proliferation. Cells were plated into 24-well culture plates at the number of 1.25×10^4/well in complete SFM-endothelial media (Gibco, USA). After 24 hours, the medium was removed and various amounts of peptides were added into the wells in 0.5 ml of SFM-endothelial medium without bFGF. After 30 minutes incubation, bFGF was added into each well at a final concentration of 1 ng/ml together with another 0.5 ml of SFM-endothelial medium. Seventy-two hours later, cells were trypsinized and counted using a hemocytometer. […] The IC50 of the Endo-2, -3 and -4 peptides is estimated to be 0.4 uM, 0.3 uM and 2 uM respectively.

[2] = test system: chick embryo chorioallantoic membrane (CAM); assay: chick embryo chorioallantoic membrane (CAM) in vivo angiogenesis assay; details: for inhibition of chick CAM angiogenesis (in words): peptide on cover slip, compared to PBS control
Procedure: Since peptides Angio-2, Angio-3 and Angio-4 all inhibited BAE cell proliferation, they were also tested in the chick embryo chorioallantoic membrane (CAM) in vivo angiogenesis assay (7). In this assay, the peptides are coated onto 2-3 mm glass squares cut from microscope cover slips. […] Peptide Angio-3 reduced microvessel density at the very low dose of 12 pg/cover slip (the lowest dose tested, comparing to a PBS control). As a positive control, recombinant angiostatin at the dose of 100 ug/cover slip was tested in the same experiment. The amount of inhibition (judging from the extent of reduction in microvessel density) from 100 ug recombinant angiostatin is equivalent to 1.2 ug of Angio-3 peptide.

BAE cells = assay: BAE cell cytotoxicity by trypan blue staining and cellular morphology; assay type: cell-based, bovine; details: 20 μM, trypan blue staining and microscopic cellular morphology
Procedure: The IC50 of the three peptides are about 2 mM, 20 nM and 200 uM respectively.

[3] = test system: Human hepatoma cell line HepG2; details: mouse, in vivo, 15 mg/kg, 12 h
Procedure: Human hepatoma cell line HepG2 was cultured and 1 million cells were injected subcutaneously into the right back of each 6 weeks old BALB/c nude mouse. Visible tumors appear from about 2 weeks after tumor cell injection. Mice with tumors were then randomly grouped and injected with the peptide at 300 μg/mouse every 12 h (16-19 g average weight). […] Tumor sizes were measured with a caliper every three days and volumes calculated using the formula (width)^2×length×0.52. Statistical analyses were done using student t-test using the SigmaStat software (SPSS, USA). Tumors are angiogenesis dependent. To test if peptide angio-3 can inhibit tumor growth in vivo, human hepatoma HepG2 cells were injected subcutaneously into nude mice to induce tumor formation. Tumor nodules appear in about 15-18 days after tumor cell injection. Peptide was then injected at a distant site from the tumor into tumor bearing mice at 15 mg/kg every 12 h for up to a month. […] Experiments were terminated when the control group tumors started to show necrosis.

[4] = test system: bovine aorta endothelial cell (BAE); details: reported in reference 5; cited from earlier work
[5] = 100 mg/kg/day; cited from earlier work
[6] = test system: primary tumor growth and metastasis; details: mice; cited from earlier work
[7] = test system: chick embryo chorioallantoic membrane (CAM); assay: chick embryo chorioallantoic membrane (CAM) in vivo angiogenesis assay; details: 10 day embryo, 12 ug/cover slip

Compound | IC50 [1] | inhibition of BAE cell proliferation (in words) [1] | inhibition of chick CAM angiogenesis (in words) [2] | further results
CC(C)C[C@H](NC(=O)[C@@H]1CCCN1C(=O)[C@@H](NC(=O)[C@H](CC(N)=O)NC(=O)[C@H](CC(C)C)NC(=O)[C@H](C)NC(=O)[C@@H](NC(=O)[C@H](CC(C)C)NC(=O)[C@H](Cc1c[nH]cn1)NC(=O)[C@H](CC(C)C)NC(=O)[C@@H](NC(=O)[C@@H]1CCCN1C(=O)[C@@H](N)CCC(N)=O)C(C)C)C(C)C)[C@@H](C)O)C(=O)O [Endo-2] (H-QPVLHLVALNTPL-OH; N-terminus and C-terminus assumed) | ~0.4 µM | inhibited BAE cell proliferation in a dose-dependent manner | – | –
C[C@@H](O)[C@H](N)C(=O)N1CCC[C@H]1C(=O)N[C@@H](Cc1c[nH]cn1)C(=O)N[C@@H](CCCNC(=N)N)C(=O)N[C@@H](Cc1c[nH]cn1)C(=O)N[C@@H](CCC(N)=O)C(=O)N[C@@H](CCCCN)C(=O)N[C@H](C(=O)N1CCC[C@H]1C(=O)N[C@@H](CCC(=O)O)C(=O)O)[C@@H](C)O [Angio-4] (H-TPHRHQKTPE-OH; N-terminus and C-terminus assumed) | ~200 µM | inhibited BAE cell proliferation in a dose-dependent manner | inhibited chick CAM angiogenesis | inhibition of chick CAM angiogenesis (FIG. 3, 4) ([2]; 4 day embryo, 120 ug/cover slip): Inhibition of chick CAM angiogenesis
hFLT2: small peptide designed from Ig domain 2 of the extracellular region of FLT-1 (SPNITVTLKKFPL; Mammalian; hFLT2) | – | – | very potent angiogenesis inhibition activity | –
mVEGF: peptide designed from mammalian VEGF sequences (YPDEIEYIFKPS; Mammalian; mVEGF) | – | – | dose-dependent inhibition of CAM angiogenesis | inhibition of chick CAM angiogenesis (FIG. 9A-9B) ([2]; 13 day embryo, various doses, 0 and 40 hours incubation): Inhibition of chick CAM angiogenesis
hFLT2-7: further N-terminal truncation of hFLT2 (TLKKFPL; Mammalian; hFLT2-7) | – | – | non-functional peptide | –
hFLT2-5: further N-terminal truncation of hFLT2 (KKFPL; Mammalian; hFLT2-5) | – | – | non-functional peptide | –
Endo-1: endostatin-derived small peptide (SPHNSYIVLPI; Mammalian; Endo-1) | – | only a slight inhibition effect at high doses | – | –
C[C@@H](O)[C@H](N)C(=O)N1CCC[C@H]1C(=O)N[C@@H](Cc1c[nH]cn1)C(=O)N[C@H](C(=O)N[C@@H](Cc1c[nH]cn1)C(=O)N[C@@H](CC(N)=O)C(=O)N[C@@H](CCCNC(=N)N)C(=O)N[C@H](C(=O)N1CCC[C@H]1C(=O)N[C@@H](CCC(=O)O)C(=O)O)[C@@H](C)O)[C@@H](C)O [Angio-3] (H-TPHTHNRTPE-OH) | ~0.02 µM | – | – | cell cytotoxicity with BAE cells (BAE cells): No obvious cell cytotoxicity; inhibition of HepG2 tumor growth [3]: about 40%
CC(C)[C@H](NC(=O)[C@H](CO)NC(=O)[C@H](CCCCN)NC(=O)[C@H](CCC(N)=O)NC(=O)[C@@H]1CCCN1C(=O)[C@H](Cc1c[nH]c2ccccc12)NC(=O)[C@H](C)NC(=O)[C@@H]1CCCN1C(=O)[C@@H](N)Cc1c[nH]cn1)C(=O)N[C@@H](Cc1c[nH]c2ccccc12)C(=O)N[C@@H](Cc1c[nH]cn1)C(=O)NCC(=O)N[C@@H](CO)C(=O)N[C@@H](CC(=O)O)C(=O)N1CCC[C@H]1C(=O)N[C@@H](CO)C(=O)O [Endo-4] (H-HPAWPQKSVWHGSDPS-OH; N-terminus and C-terminus assumed) | ~2 µM | inhibited BAE cell proliferation in a dose-dependent manner | – | inhibition of chick CAM angiogenesis (FIG. 8) ([2]; 10 day embryo, 1.8 μg/coverslip): Inhibition of chick CAM angiogenesis
fVEGF: peptide designed from Zebrafish VEGF (YPDEIEHTYIPS; Mammalian; fVEGF) | – | – | dose-dependent inhibition of CAM angiogenesis | –
angiostatin | – | – | – | reported IC50 range, endothelial cell proliferation [4]: nanomolar range; toxicity in mice [5]: without observable toxicity; dose at which inhibition of metastasis is observed [6]: about 1 mg/kg/day; dose at which inhibition of primary tumor growth is observed [6]: about 10 mg/kg/day
CC[C@H](C)[C@H](NC(=O)[C@@H]1CCCN1C(=O)[C@@H](N)C(C)C)C(=O)N[C@H](C(=O)N[C@@H](CC(N)=O)C(=O)N[C@@H](CC(C)C)C(=O)N[C@@H](CCCCN)C(=O)N[C@@H](CC(=O)O)C(=O)N[C@@H](CCC(=O)O)C(=O)N[C@H](C(=O)N[C@@H](CC(C)C)C(=O)N[C@@H](CO)C(=O)N1CCC[C@H]1C(=O)N[C@@H](CO)C(=O)O)C(C)C)C(C)C [Endo-3] (H-VPIVNLKDEVLSPS-OH; N-terminus and C-terminus assumed) | ~0.3 µM | inhibited BAE cell proliferation in a dose-dependent manner | – | –
CC[C@H](C)[C@H](NC(=O)[C@H](Cc1ccc(O)cc1)NC(=O)CNC(=O)[C@H](Cc1c[nH]cn1)NC(=O)[C@H](C)NC(=O)[C@H](Cc1c[nH]cn1)NC(=O)[C@@H]1CCCN1C(=O)[C@@H](N)CO)C(=O)N1CCC[C@H]1C(=O)N[C@@H](CO)C(=O)O [Angio-2] (H-SPHAHGYIPS-OH; N-terminus and C-terminus assumed) | ~2000 µM | inhibited BAE cell proliferation in a dose-dependent manner | inhibited chick CAM angiogenesis | inhibition of chick CAM angiogenesis (FIG. 5) [7]: Inhibition of chick CAM angiogenesis
